The values that follow come from patent publication US8399676B2, “Piperidine derivatives” (Hoffman-La Roche Inc., priority 2009, dated 2013).

The structures appear in SMILES notation. Where a name gives a salt, the structure may show the parent alone.

The experiment addresses T1, human HSL (Homo sapiens, UniProt Q05469).
T1 construct: generate a full length human HSL ORF with a 3′-His6 tag; His6 (C); made in house; host or cells: High 5 insect cells (baculovirus, pFast-BAC)
T1 sequence (Q05469 1-1076): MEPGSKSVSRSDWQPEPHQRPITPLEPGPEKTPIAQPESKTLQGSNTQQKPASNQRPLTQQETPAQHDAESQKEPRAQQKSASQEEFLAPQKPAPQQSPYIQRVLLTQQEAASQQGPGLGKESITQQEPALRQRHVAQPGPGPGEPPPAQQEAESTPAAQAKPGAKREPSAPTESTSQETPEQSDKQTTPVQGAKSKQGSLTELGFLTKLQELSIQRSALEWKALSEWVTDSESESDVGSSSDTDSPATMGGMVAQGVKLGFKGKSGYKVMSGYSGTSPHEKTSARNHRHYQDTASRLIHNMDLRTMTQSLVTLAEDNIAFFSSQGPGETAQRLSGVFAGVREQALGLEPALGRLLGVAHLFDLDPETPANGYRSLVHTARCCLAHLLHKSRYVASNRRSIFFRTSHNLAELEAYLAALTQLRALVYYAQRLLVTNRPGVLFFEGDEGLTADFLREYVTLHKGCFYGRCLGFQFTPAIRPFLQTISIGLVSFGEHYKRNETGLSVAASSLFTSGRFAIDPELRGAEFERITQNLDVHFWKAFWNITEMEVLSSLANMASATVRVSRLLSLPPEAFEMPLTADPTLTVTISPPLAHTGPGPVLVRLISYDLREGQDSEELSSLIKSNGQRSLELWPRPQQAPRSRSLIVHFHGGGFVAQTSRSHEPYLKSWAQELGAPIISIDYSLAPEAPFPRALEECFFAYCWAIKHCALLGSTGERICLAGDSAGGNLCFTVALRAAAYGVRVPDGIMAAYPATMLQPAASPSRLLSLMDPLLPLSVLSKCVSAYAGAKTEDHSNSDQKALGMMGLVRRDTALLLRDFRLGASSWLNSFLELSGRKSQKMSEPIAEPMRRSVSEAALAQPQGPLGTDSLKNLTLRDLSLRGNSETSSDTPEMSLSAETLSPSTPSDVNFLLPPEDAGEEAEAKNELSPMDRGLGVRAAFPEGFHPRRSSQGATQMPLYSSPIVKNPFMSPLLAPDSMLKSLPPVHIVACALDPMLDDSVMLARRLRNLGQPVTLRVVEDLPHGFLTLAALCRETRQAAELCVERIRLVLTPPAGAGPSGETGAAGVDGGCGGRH
Kind of experiment: Human Hormone-Sensitive Lipase (HSL) enzyme inhibition assay (colorimetric, DMPT substrate). The format is biochemical. To be noted: read-out: HSL hum IC50. The gist of the method:
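Full-length human HSL carrying a C-terminal His6 tag was expressed in High 5 insect cells via baculovirus and purified on Ni-NTA. Compounds from 3-fold DMSO series were mixed with 1.5 mM DMPT substrate suspension in 100 mM MOPS pH 7.2 with 0.2 mg/ml fatty acid-free BSA, then enzyme (15 ug/ml) was added for 20 minutes at 37 °C. Released thiol was detected with DTNB plus SDS/Triton X-100 (15 minutes, room temperature) at 405 nm.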
In general, IC50 refers to the midpoint of a concentration-inhibition curve. In the case of `NC1(C(=O)Nc2ccc(OC(F)(F)F)cc2)CCN(S(=O)(=O)c2ccccc2Cl)CC1` [Example 103, 4-Amino-1-(2-chloro-benzenesulfonyl)-piperidine-4-carboxylic acid (4-trifluoromethoxy-phenyl)-amide], the IC50 was 30 nM.

Take `CCc1ccc(NC(=O)C2(N)CCN(S(=O)(=O)c3ccc(F)cc3Cl)CC2)cc1` [Example 146, 4-Amino-1-(2-chloro-4-fluoro-benzenesulfonyl)-piperidine-4-carboxylic acid (4-ethyl-phenyl)-amide]: the IC50 was 120 nM.

Take `CC(C)(C)c1ccc(NC(=O)N2CCC(N)(C(=O)Nc3ccc(F)cc3)CC2)cc1` [Example 87, 4-Amino-piperidine-1,4-dicarboxylic acid 1-[(4-tert-butyl-phenyl)-amide]-4-[(4-fluoro-phenyl)-amide]; hydrochloride]: the IC50 is 780 nM.

`CCc1ccc(NC(=O)C2(N)CCN(S(=O)(=O)c3ccccc3C)CC2)cc1` [Example 135, 4-Amino-1-(toluene-2-sulfonyl)-piperidine-4-carboxylic acid (4-ethyl-phenyl)-amide]: the concentration for half-maximal inhibition (IC50) was 80 nM.

`CN(C(=O)C1(O)CCN(S(=O)(=O)c2ccccc2F)CC1)c1ccc(OC(F)(F)F)cc1` [Example 70, 1-(2-Fluoro-benzenesulfonyl)-4-hydroxy-piperidine-4-carboxylic acid methyl-(4-trifluoromethoxy-phenyl)-amide]: the IC50 amounted to 90 nM.

Regarding `CC(C)c1ccc(NC(=O)C2(N)CCN(Cc3ccccc3)CC2)cc1` [Example 122, 4-Amino-1-benzyl-piperidine-4-carboxylic acid (4-isopropyl-phenyl)-amide], the IC50 came out at 130 nM.

As to `CC(C)c1ccc(NC(=O)C2(N)CCN(C(=O)c3ccc(C(F)(F)F)nc3)CC2)cc1` [Example 130, 4-Amino-1-(6-trifluoromethyl-pyridine-3-carbonyl)-piperidine-4-carboxylic acid (4-isopropyl-phenyl)-amide], the IC50 is 520 nM.

Take `O=C(c1ccccc1Cl)N1CCC(O)(C(=O)Nc2ccc(OC(F)(F)F)cc2)CC1` [Example 56, 1-(2-Chloro-benzoyl)-4-hydroxy-piperidine-4-carboxylic acid (4-trifluoromethoxy-phenyl)-amide]: the 50% inhibitory concentration (IC50) was 460 nM.

For `CC(C)c1ccc(NC(=O)C2(N)CCN(C(=O)c3ccc(C(F)(F)F)cc3)CC2)cc1` [Example 126, 4-Amino-1-(4-trifluoromethyl-benzoyl)-piperidine-4-carboxylic acid (4-isopropyl-phenyl)-amide], the half-maximal inhibitory concentration (IC50) worked out at 250 nM.

Regarding `CC(C)(C)c1ccc(NC(=O)C2(O)CCN(C(=O)c3ccc(F)cc3)CC2)cc1` [Example 18, 1-(4-Fluoro-benzoyl)-4-hydroxy-piperidine-4-carboxylic acid (4-tert-butyl-phenyl)-amide], the concentration for half-maximal inhibition (IC50) came to 210 nM.

`CC(C)(C)c1ccc(NC(=O)C2(O)CCN(Cc3ccccc3OC(F)(F)F)CC2)cc1` [Example 48, 4-Hydroxy-1-(2-trifluoromethoxy-benzyl)-piperidine-4-carboxylic acid (4-tert-butyl-phenyl)-amide]: the half-maximal inhibitory concentration (IC50) is 110 nM.

For the compound `CC(C)c1ccc(NC(=O)C2(O)CCN(Cc3ccc(C(F)(F)F)cc3)CC2)cc1` [Example 9, 4-Hydroxy-1-(4-trifluoromethyl-benzyl)-piperidine-4-carboxylic acid (4-isopropyl-phenyl)-amide], the half-inhibitory concentration (IC50) came to 450 nM.

`CC(C)c1ccc(NC(=O)C2(N)CCN(Cc3ccc(F)cc3)CC2)cc1` [Example 121, 4-Amino-1-(4-fluoro-benzyl)-piperidine-4-carboxylic acid (4-isopropyl-phenyl)-amide; hydrochloride]: the IC50 was 160 nM.

As for `CC(C)c1ccc(NC(=O)C2(N)CCN(C(=O)Nc3ccc(OC(F)(F)F)cc3)CC2)cc1` [Example 85, 4-Amino-piperidine-1,4-dicarboxylic acid 4-[(4-isopropyl-phenyl)-amide]1-[(4-trifluoromethoxy-phenyl)-amide]; hydrochloride], the IC50 was 120 nM.

With `NC1(C(=O)Nc2ccc(OCC(F)(F)F)cc2)CCN(S(=O)(=O)c2ccccc2Cl)CC1` [Example 105, 4-Amino-1-(2-chloro-benzenesulfonyl)-piperidine-4-carboxylic acid [4-(2,2,2-trifluoro-ethoxy)-phenyl]-amide], the IC50 was determined as 110 nM.

As to `CC(C)(C)CS(=O)(=O)N1CCC(O)(C(=O)Nc2ccc(OC(F)(F)F)cc2)CC1` [Example 55, 1-(2,2-Dimethyl-propane-1-sulfonyl)-4-hydroxy-piperidine-4-carboxylic acid (4-trifluoromethoxy-phenyl)-amide], the IC50 was 330 nM.

Turning to `CCc1ccc(NC(=O)C2(N)CCN(S(=O)(=O)c3ccc(CC)cc3)CC2)cc1` [Example 140, 4-Amino-1-(4-ethyl-benzenesulfonyl)-piperidine-4-carboxylic acid (4-ethyl-phenyl)-amide], the IC50 was found to be 110 nM.

As to `Cc1ccc(S(=O)(=O)N2CCC(O)(C(=O)Nc3ccc(OC(C)C)cc3)CC2)cc1` [Example 12, 4-Hydroxy-1-(toluene-4-sulfonyl)-piperidine-4-carboxylic acid (4-isopropoxy-phenyl)-amide], the half-maximal inhibitory concentration (IC50) is 860 nM.

As to `Cc1ccc(NC(=O)C2(N)CCN(C(=O)Nc3ccc(OC(F)(F)F)cc3)CC2)cc1` [Example 84, 4-Amino-piperidine-1,4-dicarboxylic acid 4-p-tolylamide 1-[(4-trifluoromethoxy-phenyl)-amide]; hydrochloride], the IC50 is 360 nM.

In the case of `CNC1(C(=O)Nc2ccc(OC(F)(F)F)cc2)CCN(S(=O)(=O)c2ccc(C)cc2)CC1` [Example 160, 4-Methylamino-1-(toluene-4-sulfonyl)-piperidine-4-carboxylic acid (4-trifluoromethoxy-phenyl)-amide], the half-maximal inhibitory concentration (IC50) was determined as 100 nM.

Regarding `CCc1ccc(NC(=O)C2(N)CCN(S(=O)(=O)CC3CCCCC3)CC2)cc1` [Example 144, 4-Amino-1-cyclohexylmethanesulfonyl-piperidine-4-carboxylic acid (4-ethyl-phenyl)-amide], the IC50 is 140 nM.

In the case of `CCc1ccc(NC(=O)C2(N)CCN(S(=O)(=O)c3ccccc3OC(F)(F)F)CC2)cc1` [Example 149, 4-Amino-1-(2-trifluoromethoxy-benzenesulfonyl)-piperidine-4-carboxylic acid (4-ethyl-phenyl)-amide], the IC50 stood at 50 nM.

Turning to `CC(C)(C)c1ccc(NC(=O)C2(O)CCN(S(=O)(=O)c3ccccc3Cl)CC2)cc1` [Example 17, 1-(2-Chloro-benzenesulfonyl)-4-hydroxy-piperidine-4-carboxylic acid (4-tert-butyl-phenyl)-amide], the IC50 is 60 nM.

With `CCc1ccc(NC(=O)C2(N)CCN(Cc3ccccc3Cl)CC2)cc1` [Example 154, 4-Amino-1-(2-chloro-benzyl)-piperidine-4-carboxylic acid (4-ethyl-phenyl)-amide], the IC50 is 110 nM.

Take `CCc1ccc(NC(=O)C2(N)CCN(S(=O)(=O)c3ccc(OC)cc3)CC2)cc1` [Example 139, 4-Amino-1-(4-methoxy-benzenesulfonyl)-piperidine-4-carboxylic acid (4-ethyl-phenyl)-amide]: the IC50 came out at 80 nM.

For the compound `CC(C)(C)c1ccc(NC(=O)C2(O)CCN(C(=O)Nc3ccc(C(F)(F)F)cc3)CC2)cc1` [Example 15, 4-Hydroxy-piperidine-1,4-dicarboxylic acid 4-[(4-tert-butyl-phenyl)-amide] 1-[(4-trifluoromethyl-phenyl)-amide]], the IC50 came out at 410 nM.

Take `Cc1ccccc1S(=O)(=O)N1CCC(O)(C(=O)Nc2ccc(OC(F)(F)F)cc2)CC1` [Example 59, 4-Hydroxy-1-(toluene-2-sulfonyl)-piperidine-4-carboxylic acid (4-trifluoromethoxy-phenyl)-amide]: the 50% inhibitory concentration (IC50) was found to be 290 nM.

For `CC(C)(Oc1ccc(NC(=O)C2(N)CCN(S(=O)(=O)c3ccccc3Cl)CC2)cc1)C(F)(F)F` [Example 102, 4-Amino-1-(2-chloro-benzenesulfonyl)-piperidine-4-carboxylic acid [4-(2,2,2-trifluoro-1,1-dimethyl-ethoxy)-phenyl]-amide], the IC50 stood at 180 nM.
